Molecules are shown by their SMILES. pIC50: −log10 of the molar value.

For one assay, the target named is T1, human orexin-2 receptor (Homo sapiens, UniProt O43614).
T1 construct: expressed in transfected cells; host or cells: CHO cells (G418 selection)
T1 sequence (O43614 1-444): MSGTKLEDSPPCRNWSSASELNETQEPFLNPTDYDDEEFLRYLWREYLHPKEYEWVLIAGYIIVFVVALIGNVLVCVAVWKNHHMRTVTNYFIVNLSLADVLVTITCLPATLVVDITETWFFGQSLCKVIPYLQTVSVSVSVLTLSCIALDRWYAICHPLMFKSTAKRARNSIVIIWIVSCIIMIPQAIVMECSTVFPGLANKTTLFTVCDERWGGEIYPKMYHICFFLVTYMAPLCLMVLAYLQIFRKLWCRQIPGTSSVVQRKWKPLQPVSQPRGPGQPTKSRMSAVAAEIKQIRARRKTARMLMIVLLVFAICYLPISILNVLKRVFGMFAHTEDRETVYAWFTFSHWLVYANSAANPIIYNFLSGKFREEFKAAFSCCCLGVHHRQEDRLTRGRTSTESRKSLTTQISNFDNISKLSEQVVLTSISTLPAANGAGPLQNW
Put plainly: Intracellular calcium measurements (FLIPR), orexin-A induced, CHO cells expressing human orexin-2 receptor. Format: cell-based. Particulars: 10 nM orexin-A as agonist, read-out: IC50 OX2. Here is the method: (§1) The orexin receptor antagonistic activity of the compounds of formula (I) and/or (Ia) is determined in accordance with the following experimental method.
(§2) Intracellular Calcium Measurements:
(§3) Chinese hamster ovary (CHO) cells expressing the human orexin-1 receptor and the human orexin-2 receptor, respectively, are grown in culture medium (Ham F-12 with L-Glutamine) containing 300 μg/ml G418, 100 U/ml penicillin, 100 μg/ml streptomycin and 10% inactivated fetal calf serum (FCS). The cells are seeded at 80'000 cells/well into 96-well black clear bottom sterile plates (Costar) which have been precoated with 1% gelatine in Hanks' Balanced Salt Solution (HBSS). All reagents are from Gibco BRL. The seeded plates are incubated overnight at 37° C. in 5% CO2.
(§4) Human orexin-A as an agonist is prepared as 1 mM stock solution in methanol:water (1:1), diluted in HBSS containing 0.1% bovine serum albumin (BSA) and 2 mM HEPES for use in the assay at a final concentration of 10 nM.
(§5) Antagonists are prepared as 10 mM stock solution in DMSO, then diluted in 96-well plates, first in DMSO, then in HBSS containing 0.1% bovine serum albumin (BSA) and 2 mM HEPES.
(§6) On the day of the assay, 100 μl of loading medium (HBSS containing 1% FCS, 2 mM HEPES, 5 mM probenecid (Sigma) and 3 μM of the fluorescent calcium indicator fluo-3 AM (1 mM stock solution in DMSO with 10% pluronic acid) (Molecular Probes) is added to each well.
(§7) The 96-well plates are incubated for 60 min at 37° C. in 5% CO2. The loading solution is then aspirated and cells are washed 3 times with 200 μl HBSS containing 2.5 mM probenecid, 0.1% BSA, 2 mM HEPES. 100 μl of that same buffer is left in each well.
(§8) Within the Fluorescent Imaging Plate Reader (FLIPR, Molecular Devices), antagonists are added to the plate in a volume of 50 μl, incubated for 20 min and finally 100 μl of agonist is added. Fluorescence is measured for each well at 1 second intervals, and the height of each fluorescence peak is compared to the height of the fluorescence peak induced by 10 nM orexin-A with buffer in place of antagonist. For each antagonist, IC50 value (the concentration of compound needed to inhibit 50% of the agonistic response) is determined. Antagonistic activities of compounds are in the nanomolar range with respect to OX1 and OX2 receptors.
(In general: Calcium assays in cells follow changes in intracellular calcium, usually with a dye or a luminescent sensor.)

A further assay concerns the target T2, human orexin-1 receptor (Homo sapiens, UniProt O43613).
T2 construct: expressed in transfected cells; host or cells: CHO cells (G418 selection)
T2 sequence (O43613 1-425): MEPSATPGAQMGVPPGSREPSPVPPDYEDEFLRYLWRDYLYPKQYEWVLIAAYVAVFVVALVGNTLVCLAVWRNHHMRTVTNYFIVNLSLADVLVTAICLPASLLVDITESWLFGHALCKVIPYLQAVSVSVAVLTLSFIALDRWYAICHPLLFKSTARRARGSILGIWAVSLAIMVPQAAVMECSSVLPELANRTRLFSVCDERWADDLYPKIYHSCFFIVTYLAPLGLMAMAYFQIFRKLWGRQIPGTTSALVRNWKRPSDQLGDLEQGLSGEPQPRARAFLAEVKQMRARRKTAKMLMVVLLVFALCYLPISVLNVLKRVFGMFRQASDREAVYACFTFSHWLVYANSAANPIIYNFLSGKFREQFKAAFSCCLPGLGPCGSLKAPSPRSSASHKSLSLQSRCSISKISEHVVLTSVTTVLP
The assay is described as follows: Intracellular calcium measurements (FLIPR), orexin-A induced, CHO cells expressing human orexin-1 receptor. The format is cell-based. Particulars: 10 nM orexin-A as agonist, read-out: IC50 OX1. Here is the method: as §1, §2, §3, §4, §5, §6, §7, §8

As usually defined, the pIC50 is −log10 of the IC50, conventionally taken in molar units. Turning to `CCn1nc(C)c2c1CCN([C@@H](C(=O)NC)c1ccccc1)[C@H]2CCc1ccc(C)cc1` (stereo in doubt) [Example 6, 2-[1-Ethyl-3-methyl-4-(2-p-tolyl-ethyl)-1,4,6,7-tetrahydro-pyrazolo[4,3-c]pyridin-5-yl]-N-methyl-2-phenyl-acetamide], the figures for the pIC50 on human orexin-2 receptor and on human orexin-1 receptor were 8.40 and 7.12, respectively.
As for `CCn1nc(C)c2c1CCN(C(C(=O)NC)c1ccccc1)C2CCc1cc(C(F)(F)F)ccc1F` (stereo not drawn) [Example 3, 2-{1-Ethyl-4-[2-(2-fluoro-5-trifluoromethyl-phenyl)-ethyl]-3-methyl-1,4,6,7-tetrahydro-pyrazolo[4,3-c]pyridin-5-yl}-N-methyl-2-phenyl-acetamide], the pIC50 on human orexin-2 receptor was 8.52; on human orexin-1 receptor, 7.31.
The like results for `CCn1nc(C)c2c1CCN([C@@H](C(=O)NC)c1ccccc1)[C@H]2CCc1ccc(C(F)(F)F)cc1F` [Example 31, 2-{1-Ethyl-4-[2-(2-fluoro-4-trifluoromethyl-phenyl)-ethyl]-3-methyl-1,4,6,7-tetrahydro-pyrazolo[4,3-c]pyridin-5-yl}-N-methyl-2-phenyl-acetamide] were, in that order, 8.10 and 7.28.
The like results for `CCn1nc(C)c2c1CCN([C@@H](C(=O)NC)c1ccccc1)[C@H]2CCc1ccc(C)c(F)c1` [Example 32, 2-{1-Ethyl-4-[2-(3-fluoro-4-methyl-phenyl)-ethyl]-3-methyl-1,4,6,7-tetrahydro-pyrazolo[4,3-c]pyridin-5-yl}-N-methyl-2-phenyl-acetamide] were, in that order, 8.70 and 7.31.
The like results for `CCn1nc(C)c2c1CCN([C@@H](C(=O)NC)c1ccccc1)[C@H]2CCc1ccc(C)c(C)c1` [Example 33, 2-{4-[2-(3,4-Dimethyl-phenyl)-ethyl]-1-ethyl-3-methyl-1,4,6,7-tetrahydro-pyrazolo[4,3-c]pyridin-5-yl}-N-methyl-2-phenyl-acetamide] were, in that order, 8.40 and 7.70.
For `CCn1nc(C)c2c1CCN([C@@H](C(=O)NC)c1ccccc1)[C@H]2CCc1ccc(C)cc1C` [Example 35, 2-{4-[2-(2,4-Dimethyl-phenyl)-ethyl]-1-ethyl-3-methyl-1,4,6,7-tetrahydro-pyrazolo[4,3-c]pyridin-5-yl}-N-methyl-2-phenyl-acetamide], the pIC50 on human orexin-2 receptor is 8.15; at human orexin-1 receptor, 6.88.

Values taken from patent US7834028B2, “Pyrazolo-tetrahydro pyridine derivatives as orexin receptor antagonists” (Actelion Pharmaceuticals Ltd., priority 2006, dated 2010).
